Data from patent US11045448B2, “Piperidines as covalent menin inhibitors” (THE REGENTS OF THE UNIVERSITY OF MICHIGAN, priority 2017, dated 2021).

Columns and labels:
[1] = biological target: menin protein (Homo sapiens (Human), UniProt O00255); assay: Fluorescence polarization (FP) competitive binding assay, menin binding affinity; details: menin protein 4 nM, probe 2 nM, room temperature 30 minutes
Procedure: A fluorescence polarization (FP) competitive binding assay was used to determine the binding affinities of representative menin inhibitors. A FAM labeled fluorescent probe was designed and synthesized based on a MLL1 peptide (FAM-MM2). Equilibrium dissociation constant (Kd) value of FAM-MM2 to menin protein was determined from protein saturation experiments by monitoring the total fluorescence polarization of mixtures composed with the fluorescent probe at a fixed concentration and the protein with increasing concentrations up to full saturation. Serial dilutions of the protein were mixed with FAM-MM2 to a final volume of 200 μl in the assay buffer (PBS with 0.02% Bovine γ-Globulin and 4% DMSO. 0.01% Triton X-100 was added right before assays). Final FAM-MM2 concentration was 2 nM. Plates were incubated at room temperature for 30 minutes with gentle shaking to assure equilibrium. FP values in millipolarization units (mP) were measured using the Infinite M-1000 plate reader (Tecan U.S., Research Triangle Park, N.C.) in Microfluor 1 96-well, black, v-bottom plates (Thermo Scientific, Waltham, Mass.) at an excitation wavelength of 485 nm and an emission wavelength of 530 nm.
The IC50, see Table 3, of representative Compounds of the Disclosure were determined in a competitive binding experiment. Mixtures of 5 μl of the tested compounds in DMSO and 195 μl of preincubated protein/probe complex solution in the assay buffer were added into assay plates which were incubated at room temperature for 30 minutes with gentle shaking. Final concentration of the menin protein was 4 nM, and final probe concentration is 2 nM. Negative controls containing protein/probe complex only (equivalent to 0% inhibition), and positive controls containing only free probes (equivalent to 100% inhibition), were included in each assay plate. FP values were measured as described above. IC50 values were determined by nonlinear regression fitting of the competition curves.

[2] = tested on: MOLM13; assay: 7-day proliferation assay (WST-8), MOLM13; format: cell-based; details: Homo sapiens, MOLM-13, 168 h; Table 5; MOLM13; 7 days; read-out: IC50 in cell growth inhibition
Procedure: (§1) The effect of representative Compounds of the Disclosure on cell viability was determined in a 7-day proliferation assay. Cells were maintained in the appropriate culture medium with 10% FBS at 37° C. and an atmosphere of 5% CO2.
(§2) Cells were seeded in 96-well flat bottom (Corning COSTAR, Corning, N.Y., cat #3595) at a density of 2,000-3,000 cells/well in 100 μl of culture medium. Compounds were serially diluted in the appropriate medium, and 100 μl of the diluted compounds were added to the appropriate wells of the cell plate. After the addition of compounds, the cells were incubated at 37° C. in an atmosphere of 5% CO2 for 7 days. Cell viability was determined using the WST (2-(2-methoxy-4-nitrophenyl)-3-(4-nitrophenyl)-5-(2,4-disulfophenyl)-2H-tetrazolium, monosodium salt) Cell Counting-8 Kit (Dojindo Molecular Technologies, Inc., Rockville, Md.) according to the manufacturers' instructions.
(§3) WST-8 reagent was added to each well at a final concentration of 10% (v/v), and then the plates were incubated at 37° C. for 1-2 hours for color development. The absorbance was measured at 450 nm using a SPECTRAmax PLUS plate reader (Molecular Devices, Sunnyvale, Calif.). The readings were normalized to the DMSO-treated cells and the half maximal inhibitory concentration (IC50) was calculated by nonlinear regression (four parameters sigmoid fitted with variable slope, least squares fit, and no constraint) analysis using the GraphPad Prism 5 software (GraphPad Software, La Jolla, Calif.).

[3] = tested on: MV4-11; assay: 7-day proliferation assay (WST-8), MV4-11; format: cell-based; details: Homo sapiens, 168 h; Table 5; MV4-11; 7 days; read-out: IC50 in cell growth inhibition
Procedure: as §1, §2, §3

Sequence of menin protein (O00255 whole entry): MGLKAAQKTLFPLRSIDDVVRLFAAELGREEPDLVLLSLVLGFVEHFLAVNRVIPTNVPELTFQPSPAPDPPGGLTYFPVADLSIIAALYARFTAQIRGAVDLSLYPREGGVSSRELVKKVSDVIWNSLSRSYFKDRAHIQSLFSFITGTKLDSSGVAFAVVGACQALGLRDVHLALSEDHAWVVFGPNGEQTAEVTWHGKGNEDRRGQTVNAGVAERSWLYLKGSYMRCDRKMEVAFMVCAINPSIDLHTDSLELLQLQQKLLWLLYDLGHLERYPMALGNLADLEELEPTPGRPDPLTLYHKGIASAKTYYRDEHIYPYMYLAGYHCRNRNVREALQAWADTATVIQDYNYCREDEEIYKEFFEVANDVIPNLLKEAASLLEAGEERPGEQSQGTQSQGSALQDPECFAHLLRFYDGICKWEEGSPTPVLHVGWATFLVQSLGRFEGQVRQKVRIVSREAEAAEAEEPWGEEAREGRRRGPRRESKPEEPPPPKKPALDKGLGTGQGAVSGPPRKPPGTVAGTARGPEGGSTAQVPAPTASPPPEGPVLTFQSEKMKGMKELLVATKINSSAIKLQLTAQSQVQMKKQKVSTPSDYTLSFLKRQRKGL

| SMILES | IC50 [1] [nM] | IC50 [2] [nM] | IC50 [3] [nM] |
| --- | --- | --- | --- |
| CCc1nccn1C[C@@](c1cccc(F)c1)(C1CCN(CC2CN(c3ccc(S(=O)(=O)C4CN(C(=O)/C=C/CN5CCCCC5)C4)cc3)C2)CC1)[C@H]1CCC[C@@H]1NC(=O)OC [Cpd. No. 73, methyl ((1S,2R)-2-((S)-2-(2-ethyl-1H-imidazol-1-yl)-1-(3-fluorophenyl)-1-(1-((1-(4-((1-((E)-4-(piperidin-1-yl)but-2-enoyl)azetidin-3-yl)sulfonyl)phenyl)azetidin-3-yl)methyl)piperidin-4-yl)ethyl)cyclopentyl)carbamate] | 2 | 6 | 0.1 |
| C=CS(=O)(=O)N[C@H]1CCC[C@@H]1[C@](C#N)(c1cccc(F)c1)C1CCN(CC2CN(c3ccc(C#N)cc3)C2)CC1 [Cpd. No. 79, N-((1S,2R)-2-((S)-cyano(1-((1-(4-cyanophenyl)azetidin-3-yl)methyl)piperidin-4-yl)(3-fluorophenyl)methyl)cyclopentyl)ethenesulfonamide] | 1070 |  |  |
| C=CC(=O)N1CC(S(=O)(=O)c2ccc(N3CC(CN4CCC([C@](C#N)(c5cccc(F)c5)[C@H]5CCC[C@@H]5OC(=O)NC)CC4)C3)cc2)C1 [Cpd. No. 2, (1S,2R)-2-((R)-(1-((1-(4-((1-acryloylazetidin-3-yl)sulfonyl)phenyl)azetidin-3-yl)methyl)piperidin-4-yl)(cyano)(3-fluorophenyl)methyl)cyclopentyl methylcarbamate] | 374 |  |  |
| C=CC(=O)N[C@H]1CCC[C@@H]1[C@](C#N)(c1cccc(F)c1)C1CCN(CC2CN(c3ccc(C#N)cc3)C2)CC1 [Cpd. No. 80, N-((1S,2R)-2-((S)-cyano(1-((1-(4-cyanophenyl)azetidin-3-yl)methyl)piperidin-4-yl)(3-fluorophenyl)methyl)cyclopentyl)acrylamide] | 7 |  |  |
| N#C[C@@](c1cccc(F)c1)(C1CCN(CC2CN(c3ccc(S(=O)(=O)C4CC4)cc3)C2)CC1)[C@H]1CCC[C@@H]1NC(=O)CCl [Cpd. No. 76, 2-chloro-N-((1S,2R)-2-((S)-cyano(1-((1-(4-(cyclopropylsulfonyl)phenyl)azetidin-3-yl)methyl)piperidin-4-yl)(3-fluorophenyl)methyl)cyclopentyl)acetamide] | 5 | 313 | 117 |
| C=CC(=O)Nc1ccc(S(=O)(=O)c2ccc(N3CC(CN4CCC([C@](C#N)(c5cccc(F)c5)[C@H]5CCC[C@@H]5OC(=O)NC)CC4)C3)cc2)cc1 [Cpd. No. 11, (1S,2R)-2-((R)-(1-((1-(4-((4-acrylamidophenyl)sulfonyl)phenyl)azetidin-3-yl)methyl)piperidin-4-yl)(cyano)(3-fluorophenyl)methyl)cyclopentyl methylcarbamate] | 2200 |  |  |
| CCc1nccn1C[C@@](c1cccc(F)c1)(C1CCN(CC2(F)CN(c3ccc(S(=O)(=O)C4CN(C(=O)/C=C/CN(C)C)C4)cc3)C2)CC1)[C@H]1CCC[C@@H]1NC(=O)OC [Cpd. No. 66, methyl ((1S,2R)-2-((S)-1-(1-((1-(4-((1-((E)-4-(dimethylamino)but-2-enoyl)azetidin-3-yl)sulfonyl)phenyl)-3-fluoroazetidin-3-yl)methyl)piperidin-4-yl)-2-(2-ethyl-1H-imidazol-1-yl)-1-(3-fluorophenyl)ethyl)cyclopentyl)carbamate] | 1 |  |  |
| C=CC(=O)Nc1ccc(S(=O)(=O)c2ccc(N3CC(CN4CCC([C@@](C#N)(c5cccc(F)c5)[C@H]5CCC[C@@H]5OC(=O)NC)CC4)C3)cc2)cc1 [Cpd. No. 10, (1S,2R)-2-((S)-(1-((1-(4-((4-acrylamidophenyl)sulfonyl)phenyl)azetidin-3-yl)methyl)piperidin-4-yl)(cyano)(3-fluorophenyl)methyl)cyclopentyl methylcarbamate] | 2 |  |  |

Other lines, results leading:

| IC50 [1] [nM] | IC50 [2] [nM] | IC50 [3] [nM] | SMILES |
| --- | --- | --- | --- |
| 2 | 22 | 1 | COC(=O)N[C@H]1CCC[C@@H]1[C@](Cn1ccnn1)(c1cccc(F)c1)C1CCN(CC2CN(c3ccc(S(=O)(=O)C4CN(C(=O)/C=C/CN(C)C)C4)cc3)C2)CC1 [Cpd. No. 72, methyl ((1S,2R)-2-((S)-1-(1-((1-(4-((1-((E)-4-(dimethylamino)but-2-enoyl)azetidin-3-yl)sulfonyl)phenyl)azetidin-3-yl)methyl)piperidin-4-yl)-1-(3-fluorophenyl)-2-(1H-1,2,3-triazol-1-yl)ethyl)cyclopentyl)carbamate] |
| 2 |  |  | COC(=O)N[C@H]1CCC[C@@H]1[C@](C#N)(c1cccc(F)c1)C1CCN(CC2CN(c3ccc(S(=O)(=O)c4cccc(NC(=O)/C=C/CN(C)C)c4)cc3)C2)CC1 [Cpd. No. 63, methyl ((1S,2R)-2-((S)-cyano(1-((1-(4-((3-((E)-4-(dimethylamino)but-2-enamido)phenyl)sulfonyl)phenyl)azetidin-3-yl)methyl)piperidin-4-yl)(3-fluorophenyl)methyl)cyclopentyl)carbamate] |
| 3 | 14 | 2 | COC(=O)N[C@H]1CCC[C@@H]1[C@](C#N)(c1cccc(F)c1)C1CCN(CC2CN(c3ccc(S(=O)(=O)C4CN(C(=O)/C=C/CN5CCCC5)C4)cc3)C2)CC1 [Cpd. No. 74, methyl ((1S,2R)-2-((S)-cyano(3-fluorophenyl)(1-((1-(4-((1-((E)-4-(pyrrolidin-1-yl)but-2-enoyl)azetidin-3-yl)sulfonyl)phenyl)azetidin-3-yl)methyl)piperidin-4-yl)methyl)cyclopentyl)carbamate] |
| 11 | 1220 | 91 | C=CC(=O)N1CCC(S(=O)(=O)c2ccc(N3CC(CN4CCC([C@@](C#N)(c5cccc(F)c5)[C@H]5CCC[C@@H]5NC(=O)OC)CC4)C3)cc2)C1 (stereo partly drawn) [Cpd. No. 77, methyl ((1S,2R)-2-((1S)-(1-((1-(4-((1-acryloylpyrrolidin-3-yl)sulfonyl)phenyl)azetidin-3-yl)methyl)piperidin-4-yl)(cyano)(3-fluorophenyl)methyl)cyclopentyl)carbamate] |
| 10 | 291 | 65 | C=CC(=O)N1CCCC(S(=O)(=O)c2ccc(N3CC(CN4CCC([C@@](C#N)(c5cccc(F)c5)[C@H]5CCC[C@@H]5NC(=O)OC)CC4)C3)cc2)C1 (stereo partly drawn) [Cpd. No. 78, methyl ((1S,2R)-2-((1S)-(1-((1-(4-((1-acryloylpiperidin-3-yl)sulfonyl)phenyl)azetidin-3-yl)methyl)piperidin-4-yl)(cyano)(3-fluorophenyl)methyl)cyclopentyl)carbamate] |
| 2 | 31 | 6 | CCc1nccn1C[C@@](c1cccc(F)c1)(C1CCN(CC2CN(c3ccc(S(=O)(=O)C4CN(C(=O)/C=C/CN(C)C)C4)cc3)C2)CC1)[C@H]1CCC[C@@H]1NC(=O)OC [Cpd. No. 67, methyl ((1S,2R)-2-((S)-1-(1-((1-(4-((1-((E)-4-(dimethylamino)but-2-enoyl)azetidin-3-yl)sulfonyl)phenyl)azetidin-3-yl)methyl)piperidin-4-yl)-2-(2-ethyl-1H-imidazol-1-yl)-1-(3-fluorophenyl)ethyl)cyclopentyl)carbamate] |
| 42 |  |  | C=CC(=O)Nc1cccc(S(=O)(=O)c2ccc(N3CC(F)(CN4CCC([C@@](C#N)(c5cccc(F)c5)[C@H]5CCC[C@@H]5NC(=O)OC)CC4)C3)cc2)c1 [Cpd. No. 12, methyl ((1S,2R)-2-((S)-(1-((1-(4-((3-acrylamidophenyl)sulfonyl)phenyl)-3-fluoroazetidin-3-yl)methyl)piperidin-4-yl)(cyano)(3-fluorophenyl)methyl)cyclopentyl)carbamate] |
